Results: publication PMC4434572, “Identification of novel drugs to target dormant micrometastases” (BMC Cancer, 2015)
Read-outs that look alike come from different tables or passages of the source.

What was measured:
MDA-MB-435 cells = test: Proliferation (CFDA-AM esterase assay) of cells grown on SISgel, plastic or Matrigel, 48 h drug exposure; type: cell-based; details: for SI (EC50-P/EC50-S): ratio of EC50 on plastic versus SISgel
Source text: The libraries were obtained from the NCI (Diversity Library I) comprised of 2,918 compounds and a 10,000 compound diversity library from ChemBridge, Inc. (DiverSet-EXP). The NCI library is no longer available in the form used here, but how it was constructed is described (http://dtp.nci.nih.gov/branches/dscb/diversity_explanation.html). The ChemBridge library is a subset (Set Code NM1024) of the full 50,000 compound library (http://www.chembridge.com/screening_libraries/diversity_libraries/). Compounds were diluted to 100 μM before use. SISgel was prepared as described previously from powdered porcine small intestine submucosa obtained from Cook Biotech (W. Lafayette, IN). It is a natural product that is used extensively in tissue engineering as a bioscaffold. J82 bladder cancer cells and other cell lines were obtained from the ATCC (Bethesda, MD). The basic principle is that cells grown on any ECM are, in general, expected to show higher resistance to anticancer compounds than when grown on plastic. Therefore, compounds that show a higher activity toward cancer cells on a normal ECM than on a plastic surface would be candidates to target suppressed, micrometastatic cells. Efficacy in vitro was assessed by plating 30,000 cells in 50 μL of high glucose DMEM with penicillin-streptomycin and 10 % fetal calf serum on SISgel in a 96-well plate containing 50 μL of gelled SISgel per well. Cells were allowed to attach and assume the SISgel phenotype for 48 h. A matching plate without SISgel was prepared 24 h later by pipetting 3,000 cells in 100 μL of high glucose DMEM with penicillin-streptomycin and 10 % fetal calf serum into each well of 96 well plate. The cells were allowed to attach and grow for 24 h. These numbers of cells gave approximately equal replication rates at the time drug was added for cells grown on the plastic surface or SISgel as determined by the fraction of S-phase cells identified by flow cytometry. The cells were exposed to drug in fresh medium for 48 h, at which time the cell number was determined using the CFDA-AM cellular esterase proliferation assay (cat. #C1354, Life Technologies). For screening the results are reported as the ratio of cell count of cells on the plastic surface to the cell count on SISgel. An initial difference of 1.5 fold identified potential hits. All potential hits were confirmed in triplicate. Those compounds that replicated were confirmed by a full dose–response study yielding an EC50 using five wells per drug concentration. Data were analyzed using nonlinear regression to a sigmoid curve with Prism 4 (GraphPad Software, Inc., LaJolla, CA). Potential hits that were confirmed by dose–response using J82 were also tested with MDA-MB-435 breast cancer, PC-3 metastatic prostate cancer, Capan1 pancreatic cancer and the J82 bladder cancer cell lines.

4T1 parental cells = test: EC50 on parental 4T1 cell line grown on plastic surface; type: cell-based, mouse
Experimental: Because cancer stem cells are highly resistant to conventional chemotherapy and are thought to initiate tumors, the activity of the DT series of drugs was also checked against cancer stem cells obtained from the 4T1 line. […] For comparison the EC50 values of DT310, DT320, and doxorubicin were determined in 4T1 parental cells plated on plastic. Because this assay targeting stem cells was performed in suspension culture, we also tested whether SISgel differentiated the stem cells. As indicated by the presence of pluripotency markers (Nanog, Sox2, Oct4), the cells retained their pluripotency markers on SISgel (Fig. 5). […] The 4T1 stem cells could not be tested on Matrigel or on plastic because they differentiate and are therefore no longer stem cells. 4T1 cancer stem cells were much more sensitive to the DT agents, particularly to DT320, than to conventional chemotherapeutic drugs.

4T1 Luc2-GFP cells = test: Orthotopic 4T1 syngeneic model of triple-negative breast cancer with natural lung metastasis; type: in vivo, BALB/c mice; details: for number of large multicellular micrometastases and vascularized macrometastases to the lung: i.p. or osmotic pump
Experimental: 4T1 Luc2-GFP cells (PerkinElmer, Waltham, MA) were cultured in DMEM high glucose media with 2 mM pyruvate, 2 mM glutamine, 2 % Pen/Strep and 10 % Cosmic Calf Serum (Mediatech, Manassas, VA). To prepare cells for injection they were removed from flasks, counted using the TC10 counting system (BioRad, Hercules, CA) and checked for viability. Cells were then washed with PBS, pelleted and taken up at a concentration of 75,000 cells/ml; 100 μl of cell suspension (7,500 cells) was injected subcutaneously (bevel side up) into mammary fat pad #4 of 8 weeks old female BALB/c mice (NCI National Laboratory Frederick/Charles River animal production program). All animals were weighed and tumors were measured using calipers three times weekly. Beginning one week after implantation, which is when micrometastatic cells begin to arrive in the lungs, animals were treated three times per week with intraperitoneal DT310 or DT320 at their NOAEL dose of 75 mg/kg three times week dissolved in saline or by osmotic pump. The osmotic pumps (Alzet #2004) delivered an NOAEL dose of 23.4 and 26.7 μg/h of DT310 and DT320, respectively, for 4 weeks and were implanted as directed subcutaneously posterior to scapulae. Docetaxel was delivered once weekly intraperitoneally at its MTD of 15 mg/kg and doxorubicin delivered once weekly at its MTD of 1 mg/kg in 5 % N-Methyl-2-pyrrolidone, 5 % Solutol HS, and 90 % saline. GFP positive cells were imaged with excitation of GFP emission using a Leica Model Z16 APO fluorescence microscope equipped for a wide field, a large depth of field and 0.57–9.2X zoom capability. GFP-positive objects were counted and scored as to whether they were […], clumps of less than ten cells without a visible vasculature, as determined by co-injection of tetramethylrhodamine labeled dextran (2 million MW).

[1] = MDA-MB-435 cells on SISgel, read-out: EC50-S
[2] = MDA-MB-435 cells on plastic, read-out: EC50-P
[3] = i.p. injection or osmotic pump, vs untreated

SMILES	EC50 (MDA-MB-435 cells; Homo sapiens, MDA-MB-435 cells on SISgel, read-out: EC50-S) [µM]	EC50 (MDA-MB-435 cells; Homo sapiens, MDA-MB-435 cells on plastic, read-out: EC50-P) [µM]	SI (EC50-P/EC50-S) (MDA-MB-435 cells)	EC50 (4T1 parental cells; Mus musculus, 4T1) [µM]	primary tumor growth (4T1 Luc2-GFP cells; administered i.p. at MTD)	number of large multicellular micrometastases and vascularized macrometastases to the lung (4T1 Luc2-GFP cells)	EC50 (MDA-MB-435 cells; [1]) [µM]	EC50 (MDA-MB-435 cells; [2]) [µM]	EC50 (4T1 parental cells; plastic surface) [µM]	primary tumor growth (4T1 Luc2-GFP cells; [3])	number of single micrometastatic cells and small micrometastases in lung (4T1 Luc2-GFP cells; osmotic pump administration)	Ratio (MDA-MB-435 cells; Matrigel/SISgel EC50, MDA-MB-435)
COc1cccc2c1C(=O)c1c(O)c3c(c(O)c1C2=O)C[C@@](O)(C(=O)CO)C[C@@H]3O[C@H]1C[C@H](N)[C@H](O)[C@H](C)O1 [Doxorubicin, reference compound]	45.4	47.8	1.05	4.7	small effect	only minimal effects	–	–	–	–	–	–
O=S(=O)([O-])c1ccc2c(N=Nc3cccc4ccccc34)c(O)c(S(=O)(=O)[O-])cc2c1.[Na+].[Na+] [DT310, 4-(1-naphthalenylhydrazinylidene) -3-oxonaphthalene-2,7-disulfonic acid]	–	–	2.4	–	–	most sharply	35.9	86.5	14.4	significant reduction	significant effect	–
O=S(=O)([O-])c1cc(O)c2c(O)c(N=Nc3cccc4ccccc34)c(S(=O)(=O)[O-])cc2c1.[Na+].[Na+] [DT320, 4,5-Dihydroxy-3-(1-naphthalenylazo)-2,7-naphthalenedisulfonic acid disodium salt]	–	–	9.0	–	–	–	8.7	78	19.7	significant reduction	–	2.4
